Experimental data: patent US6770442B2, “Methods for modulating the solubility of synthetic polymers” (Boston Probes, Inc., priority 1998, dated 2004)

Assays:
[1] = UV Tm analysis of unimolecular PNA hairpins (9 bp stem duplex); assay type: physicochemical; settings: for cooperativity of sigmoidal melting transition (normalized absorbance vs. temperature): each probe at [1], FIG. 11
Description: The five Tm Samples of a dilution series of a particular unimolecular probe to be analyzed were simultaneously examined using a Cary 100 Bio UV-Visible Spectrophotometer (Varian Instruments) equipped with a 6×6 thermostatable multicell block running Win UV Bio application software package. To a 10×10 UV cell (Starna Cells, P/N 21-Q-10) was added a 7.2 mm stir bar and the 2.5 mL of each sample of the dilution series. The stirring accessory was used during all analysis. All samples were thermally denatured and reannealed prior to data collection by having the instrument rapidly ramp the temperature to a point above the melting temperature and then holding that temperature for 5-10 minutes before returning to the starting temperature. The temperature range over which data was collected was varied in response to the expected Tm which was roughly determined during the premelt and prereannealing step. Regardless of the temperature range, the temperature ramp rate for both melting “M” and reannealing “R” was always 0.5°C./min. The absorbance (260 nm, averaged over a 3 second collection) was plotted vs. the temperature of the multicell block.
After the Tm analysis was performed in Tm Buffer, to each cell was added 0.5 μL of 5M MgCl2 to thereby prepare a sample containing 1 mM MgCl2. The dilution effect was considered to be negligible. The Tm analysis was then performed again to determine whether the presence of MgCl2 had any; effect on the Tm of the unimolecular probe.
After the Tm analysis was performed in Tm Buffer and 1 mM MgCl2, to each cell was added 42 μL of saturated NaCl (approximately 6.11 M/L). The dilution effect was again considered to be negligible. The Tm analysis was then performed again to determine whether the presence of approximately 100 mM NaCl had any effect on the Tm of the unimolecular probe.

[2] = Solubility of labeled PNA oligomer in aqueous buffer
[3] = [1] approx. 7.5 μM, Buf, Mg & Na: Tm Buffer, 1 mM MgCl2 and 100 mM NaCl
[4] = [1] approx. 7.5 μM, Buf, Mg: Tm Buffer and 1 mM MgCl2
[5] = [2] approx. 3.75 μM, Buf, Mg & Na: Tm Buffer, 1 mM MgCl2 and 100 mM NaCl
[6] = [2] approx. 3.75 μM, Buf, Mg: Tm Buffer and 1 mM MgCl2
[7] = [2] approx. 3.75 μM, Buf: Tm Buffer
[8] = [3] approx. 1.87 μM, Buf, Mg & Na: Tm Buffer, 1 mM MgCl2 and 100 mM NaCl
[9] = [3] approx. 1.87 μM, Buf, Mg: Tm Buffer and 1 mM MgCl2
[10] = [3] approx. 1.87 μM, Buf: Tm Buffer
[11] = [4] approx. 0.94 μM, Buf, Mg & Na: Tm Buffer, 1 mM MgCl2 and 100 mM NaCl
[12] = [4] approx. 0.94 μM, Buf, Mg: Tm Buffer and 1 mM MgCl2
[13] = [4] approx. 0.94 μM, Buf: Tm Buffer
[14] = [5] approx. 0.468 μM, Buf, Mg & Na: Tm Buffer, 1 mM MgCl2 and 100 mM NaCl
[15] = [5] approx. 0.468 μM, Buf, Mg: Tm Buffer and 1 mM MgCl2
[16] = [5] approx. 0.468 μM, Buf: Tm Buffer

Substance | Tm, melting M [1, 3] | Tm, reannealing R [1, 3] | Tm, melting M [1, 4] | Tm, reannealing R [1, 4] | Tm, melting M [1, 5] | Tm, melting M [1, 6] | Tm, reannealing R [1, 6] | Tm, melting M [1, 7] | Tm, reannealing R [1, 7] | Tm, melting M [1, 8] | Tm, melting M [1, 9] | Tm, reannealing R [1, 9] | Tm, melting M [1, 10] | Tm, reannealing R [1, 10] | Tm, melting M [1, 11] | Tm, reannealing R [1, 11] | Tm, melting M [1, 12] | Tm, melting M [1, 13] | Tm, reannealing R [1, 13] | Tm, melting M [1, 14] | other results
H-ATA-TAT-TGG-CTG-ATC-CAA-TAT-AT-KK-NH2 [PNAD, reference compound] | 80.6 °C | 80.4 °C | 80.6 °C | 80.3 °C | 81.5 °C | 81.1 °C | 80.4 °C | 81.1 °C | 81.0 °C | 81.0 °C | 81.1 °C | 80.4 °C | 82.0 °C | 81.0 °C | 81.5 °C | 80.5 °C | 80.5 °C | 81.5 °C | 81.5 °C | 82.1 °C | Tm, reannealing R [1, 8]: 81.4 °C; Tm, reannealing R [1, 12]: 81.0 °C; Tm, reannealing R [1, 14]: 80.6 °C; Tm, melting M [1, 15]: 80.5 °C; Tm, reannealing R [1, 15]: 80.5 °C; Tm, melting M [1, 16]: 81.5 °C; Tm, reannealing R [1, 16]: 81.1 °C; cooperativity of sigmoidal melting transition (normalized absorbance vs. temperature) [1]: least cooperative sigmoidal transition
H-OEE-ATA-TAT-TGG-CTG-ATC-CAA-TAT-AT-EEK-NH2 [P4N] | 82.1 °C | 82.3 °C | 81.6 °C | 81.3 °C | 82.1 °C | 81.6 °C | 81.3 °C | 82.1 °C | 81.5 °C | 82.5 °C | 82.1 °C | 81.4 °C | 82.1 °C | 81.5 °C | 82.0 °C | 82.0 °C | 82.0 °C | 82.5 °C | 81.1 °C | 84.0 °C | Tm, reannealing R [1, 5]: 82.3 °C; Tm, reannealing R [1, 14]: 81.6 °C; Tm, melting M [1, 15]: 82.0 °C; Tm, reannealing R [1, 15]: 81.1 °C; Tm, melting M [1, 16]: 82.0 °C; Tm, reannealing R [1, 16]: 80.1 °C; cooperativity of sigmoidal melting transition (normalized absorbance vs. temperature) [1]: only a slightly less cooperative a transition as compared with probe P3N
H-OEE-ATA-TAT-TGG-OO-CCA-ATA-TAT-EEK-NH2 [P3N] | 83.1 °C | 82.9 °C | 83.1 °C | 82.4 °C | 83.1 °C | 83.1 °C | 81.9 °C | 82.5 °C | 82.4 °C | 83.5 °C | 83.0 °C | 82.5 °C | 83.0 °C | 82.4 °C | 83.5 °C | 83.0 °C | 83.0 °C | 83.0 °C | 82.5 °C | 83.5 °C | Tm, reannealing R [1, 5]: 81.4 °C; Tm, reannealing R [1, 8]: 82.9 °C; Tm, reannealing R [1, 12]: 83.1 °C; Tm, reannealing R [1, 14]: 83.1 °C; Tm, melting M [1, 15]: 83.0 °C; Tm, reannealing R [1, 15]: 82.6 °C; Tm, melting M [1, 16]: 83.0 °C; Tm, reannealing R [1, 16]: 82.6 °C; cooperativity of sigmoidal melting transition (normalized absorbance vs. temperature) [1]: most cooperative sigmoidal transition
Flu-OEE-ATA-TAT-TGG-CTG-ATC-CAA-TAT-AT-EE-K(dabcyl)-NH2 [P4] | 82.6 °C | 81.8 °C | 81.6 °C | 81.0 °C | 82.6 °C | 81.6 °C | 81.5 °C | 81.6 °C | 81.4 °C | 82.6 °C | 82.0 °C | 81.5 °C | 82.1 °C | 81.5 °C | 82.5 °C | 82.5 °C | 82.0 °C | 82.0 °C | 81.5 °C | 83.0 °C | Tm, reannealing R [1, 5]: 82.4 °C; Tm, reannealing R [1, 8]: 82.5 °C; Tm, reannealing R [1, 12]: 81.1 °C; Tm, reannealing R [1, 14]: 82.1 °C; Tm, melting M [1, 15]: 82.0 °C; Tm, reannealing R [1, 15]: 81.6 °C; Tm, melting M [1, 16]: 81.5 °C; Tm, reannealing R [1, 16]: 81.1 °C; concentration up to which completely soluble [2]: ≥ 7.5 μM/L
